The numbers were not newly measured in publication PMC10353187, “Discovery of a new potent oxindole multi-kinase inhibitor among a series of designed 3-alkenyl-oxindoles with ancillary carbonic anhydrase inhibitory activity as antiproliferative agents” (BMC Chemistry, 2023), which cites them from elsewhere.

Structures are written as SMILES.

As usually defined, the IC50 is the point on the concentration scale where inhibition reaches its midpoint. What is called Ki is the dissociation constant of the complex between target and ligand, obtained from inhibition or displacement.

For data set [1] the following is noted: Fig. 1, cited from earlier work.
The target of another data set is hCA II (Homo sapiens, UniProt P00918). The arrangement: made in house; method as in PMID 15499993, PMID 12678681, PMID 31313595, PMID 26745009. The conditions noted are these: reported CAIs, Fig. 1; cited from earlier work.

As for `COc1ccc(C2=NN(c3nc4ccccc4s3)C(c3cc(OC)c(OC)c(OC)c3)C2)cc1` (stereo not drawn) [VIII], the “Tumor selectivity (TS)” value in data set [1] was 29.3. Moreover, the IC50 in data set [1] (read-out: Cytotoxicity average IC50) was 18.7 µM. For the same molecule, on hCA II, the Ki is 22.7 µM.
